Values quoted from earlier work as cited in patent publication EP1030653B1, “DINITROANILINE LIPOSOMAL FORMULATIONS AND PROCESSES FOR THEIR PREPARATION” (INSTITUTO NACIONAL DE ENGENHARIA E TECNOLOGIA …, priority 1998, dated 2000).

Test system: Leishmania sp

CCCN(CCC)c1c([N+](=O)[O-])cc(C(F)(F)F)cc1[N+](=O)[O-] [trifluralin]
activity against the visceral forms (topical route, literature (12)): no activity

CC(=O)N(O)CCCCCNC(=O)CCC(=O)N(O)CCCCCNC(=O)CCC(=O)N(O)CCCCCN [desferrioxiamine]
efficiency (literature (32)): 44%

N=C(N)c1ccc(OCCCCCOc2ccc(C(=N)N)cc2)cc1 [pentamidine]
efficacy (in words) (literature): less efficacy than antimonial derivatives

CCC1=C(C[C@H]2NCCc3cc(OC)c(OC)cc32)C[C@H]2c3cc(OC)c(OC)cc3CCN2C1 [dehydroemetine]
cure: 67%

CN(Cc1cnc2nc(N)nc(N)c2n1)c1ccc(C(=O)N[C@@H](CCC(=O)O)C(=O)O)cc1 [methotrexate]
reduction on the infection level (literature (10, 11)): 85%
